Values joined by “and” are separate entries in the source; they are usually repeats but may differ in a detail not shown here. Identical values can stand only once. Like-named read-outs stand apart in the source and are kept apart here. Values belong to the compound of their own block, whether it stands above or below them.
Key:
[1] = cited from earlier work
[2] = ref Geist et al., 2013; cited from earlier work
[3] = test system: CYP3A4; design: method as in Mikus et al., 2006; conditions: read-out: Michaelis-Menten constant (Km) of voriconazole oxidase activity; CYP3A4 expressed in human CYP enzyme; ref Mikus et al., 2006; cited from earlier work
[4] = ref Geist et al., 2013; Hohmann et al., 2016; cited from earlier work
[5] = clinical; conditions: human, in vivo
Text: After the second sequence of drug administration, follow-up data were collected for 2 weeks (from day 16 to day 30) from all volunteers regarding any side effects or toxicity-related issues. […] Blurring vision has been reported as a major side effect in the literature ([Theuretzbacher et al., 2006]). […] In the follow-up period, we carefully monitored the aspartate aminotransferase (AST) and alanine transaminase (ALT) biochemical test reports of that volunteer.

[6] = Single oral dose, randomized, crossover PK-DDI study of voriconazole with clarithromycin; plasma voriconazole by RP HPLC UV-Vis, non-compartmental analysis; format: in vivo, human; conditions: for Cmaax of voriconazole, Mean & std. Deviation / Erate (elimination rate) of voriconazole, Mean & std. Deviation / tmax (time to reach Cmax) of voriconazole, Mean & std. Deviation: single oral dose; for concentration at 0.5 h / concentration at 1 h / concentration at 1.5 h / concentration at 2 h / concentration at 3 h / concentration at 4 h / concentration at 6 h / concentration at 8 h / concentration at 24 h: male, oral, Voriconazole plasma concentration
Experimental: The study designed was a single oral dose, open-labeled, randomized, crossover, and consisted of 02 weeks of washouts in between for evaluating drug-drug interaction in healthy volunteers.
A 2-week washout period was allocated from day 2 to day 15 to avoid the carry-over effect. […] All volunteers took the medication with a glass of water (250 mL). On days 1 and 16 (treatment days), two and 6 hours after drug administration, standard breakfast and lunch were served to all volunteers, respectively.
After taking blood samples, immediately these samples were centrifuged (at 500 rpm for 10–15 min) to separate plasma from blood (RBC) and stored at −80°C till analysis.
The plasma samples were subjected to protein precipitation and drug extraction with acetonitrile (ACN). A fixed volume of plasma (200 μL), ACN (200 μL), and internal standard (i.e., 2 μg/mL of fluconazole), taken into Eppendorf tubes were vortexed (for 5 min) and kept in the centrifuge at 10,000 RPM for 10–15 min for protein separation. Their supernatant (organic layer) layer was cautiously separated and analyzed by the already developed method. Chromatographic conditions of the HPLC-UV method comprised of isocratic mobile-phase ACN: H2O in 60:40 v/v proportions at a flow rate of 1.5 mL/min and UV detection at 254 nm. Then each sample was analyzed at least three times using the Flexar-series HPLC system, Norwalk, USA, by utilizing a C-18 Perkin-Elmer® column (with particulars of 150 mm length, 4.6 mm inner diameter, and 5 μm particle size). The total run time for each sample was ≤7.0 min.
The pharmacokinetic (PK) parameters used for PK-DDI assessment and plasma drug concentration vs. time profile were analyzed statistically through a non-compartmental approach.Pharmacokinetics PK-Summit® (version 2.0.2; Summit Research Services, Ashland, OH) software was used to evaluate all pharmacokinetic parameters. The various non-compartmental pharmacokinetic (PK) parameters calculated were peak plasma concentration (Cmax, µg/mL), time to reach Cmax (tmax, h), the elimination half-life (E-t1/2, h), an area under the curve from time zero to infinity (AUC^0-∞, μg×h/mL), and the area under the concentration-time curve from time zero to time-t (AUC^0-t, μg×h/mL), mean residence time (MRT, h), elimination rate (Erate, 1/h), apparent clearance (CL/Kg, L/h/Kg) and apparent volume of distribution (Vd, L/Kg).
Descriptive statistical tests were performed using SPSS software (version 21.0; IBM Crop; SPSS®; 2012); for a non-compartmental approach Pharmacokinetics PK-Summit® (version 2.0.2; Summit Research Services, Ashland, OH) software and MS-Excel used for results evaluation, and such data were presented graphically. […] The SPSS software (version 21.0; IBM Crop; SPSS®; 2012) procedure MIXED was used with treatment and visits as a fixed effect and subject as a random effect using the Residual maximum likelihood REML method. Sharpiro-Wilk test was used to check the normality of PK parameters. Log transformation was applied to those PK parameters (such as Cmax, MRT, apparent Vd, and E-t1/2) which were not normally distributed. […] These differences were evaluated by the ratios of geometric means between treatments and used a 90% CI for these ratios.

[7] = increased, exact percentage not reported, ref Yasu et al. (2016)
[8] = Voriz (Alone): voriconazole 200 mg × 2 tablets, n = 12
[9] = Voriz + CLRM: voriconazole 200 mg × 2 tablets + clarithromycin 500 mg tablet, n = 12
[10] = human, plasma, 400 mg, Series 1: voriconazole 400 mg alone
[11] = human, plasma, Series 2: voriconazole 400 mg along with clarithromycin 500 mg
[12] = with clarithromycin versus alone, stated as decrease
[13] = increased, exact percentage not reported, ref Heinz et al. (2007)
[14] = increased, exact percentage not reported, ref Bouatou et al. (2014)
[15] = increased, exact percentage not reported, ref Motta et al. (2016)
[16] = ref Kakuda et al., (2013), Calcagno et al., (2014)

Compound: Cc1c(OCC(F)(F)F)ccnc1C[S+]([O-])c1nc2ccccc2[nH]1 (stereo not shown) [Lanoprazole]
↑AUC of voriconazole (increase by effector drug) [1, 7]: ↑ ^NR*
↑Cmax of voriconazole (increase by effector drug) [1, 7]: ↑ ^NR*

Cmax ([5]; male): 5000 ng/mL
Duration of blurred vision ([5]; male): 10 to 15 min
Cmaax of voriconazole, Mean & std. Deviation ([6]; Voriz (Alone): voriconazole 200 mg × 2 tablets, fasted healthy male volunteers n = 12): 2.52 ± 0.21 µg/mL
Erate (elimination rate) of voriconazole, Mean & std. Deviation [6, 8]: 0.09 h⁻¹ and 0.09 ± 0.02 h⁻¹
tmax (time to reach Cmax) of voriconazole, Mean & std. Deviation [6, 8]: 2.00 ± 0 h and 2 h
AUC0-t of voriconazole, % difference ([6]; Voriz + CLRM vs Voriz (Alone)): 16%
Apparent Vd/kg of voriconazole, % difference ([6]; Voriz + CLRM vs Voriz (Alone)): −23%
Cmaax of voriconazole, % difference ([6]; Voriz + CLRM vs Voriz (Alone)): 52%
MRT of voriconazole, % difference ([6]; Voriz + CLRM vs Voriz (Alone)): −10%
tmax of voriconazole, % difference ([6]; Voriz + CLRM vs Voriz (Alone)): −25%
Cmaax of voriconazole, Mean & std. Deviation [6, 9]: 3.84 ± 0.562 µg/mL
Erate (elimination rate) of voriconazole, Mean & std. Deviation [6, 9]: 0.11 h⁻¹ and 0.11 ± 0.02 h⁻¹
tmax (time to reach Cmax) of voriconazole, Mean & std. Deviation [6, 9]: 1.50 ± 0 h and 1.5 h
AUC(0-inf) ([6]; human, plasma, po, 400 mg): 9090 ± 790 ng·h/mL
AUC(0-t) ([6]; human, plasma, po, 400 mg): 8600 ± 720 ng·h/mL
MRT ([6]; human, plasma, po, 400 mg): 6.16 ± 0.95 h
half-life ([6]; human, plasma, po, 400 mg): 7.94 ± 0.53 h
concentration at 0.5 h [6, 10]: 225 ng/mL
concentration at 1 h [6, 10]: 1020 ng/mL
concentration at 1.5 h [6, 10]: 1890 ng/mL
concentration at 2 h [6, 10]: 2520 ng/mL
concentration at 3 h [6, 10]: 1320 ng/mL
concentration at 4 h [6, 10]: 781 ng/mL
concentration at 6 h [6, 10]: 401 ng/mL
concentration at 8 h [6, 10]: 170 ng/mL
concentration at 24 h [6, 10]: 39.1 ng/mL
concentration at 0.5 h [6, 11]: 378 ng/mL
concentration at 1 h [6, 11]: 2040 ng/mL
concentration at 1.5 h [6, 11]: 3840 ng/mL
concentration at 2 h [6, 11]: 2500 ng/mL
concentration at 3 h [6, 11]: 995 ng/mL
concentration at 4 h [6, 11]: 661 ng/mL
concentration at 6 h [6, 11]: 433 ng/mL
concentration at 8 h [6, 11]: 224 ng/mL
concentration at 24 h [6, 11]: 41.8 ng/mL
decrease in tmax of voriconazole [6, 12]: 25%
decrease of E-t1/2 of voriconazole [6, 12]: 26%
decrease of MRT of voriconazole [6, 12]: 10%
reduction (decrease) in the apparent volume of distribution (Vd) of voriconazole [6, 12]: 23%
Compound: C[C@@H](c1ncncc1F)[C@](O)(Cn1cncn1)c1ccc(F)cc1F [voriconazole, (2R, 3S) -2-(2,4-difluorophenyl) -3-(5-fluora-4pyrimidinyl) -1-(1H −1,2,4-trizole-1-yl) -2-butanol]
protein binding [2]: 58%
Km [3]: 235 µM
oral bioavailability (B.A) [4]: 96%
Side effect: blurred vision [5]: Blurred vision was observed in two volunteers
Side effect: dizziness [5]: One of our volunteers had felt dizziness

Compound: CNC(=C[N+](=O)[O-])NCCSCc1ccc(CN(C)C)o1 [Ranitidine]
↑AUC of voriconazole (increase by effector drug) ([1]; ref Purkins et al. (2003b)): *↑4%
↑Cmax of voriconazole (increase by effector drug) ([1]; ref Purkins et al. (2003b)): *↑3.5%

Compound: CC[C@H]1OC(=O)[C@H](C)[C@@H](O[C@H]2C[C@@](C)(OC)[C@@H](O)[C@H](C)O2)[C@H](C)[C@@H](O[C@@H]2O[C@H](C)C[C@H](N(C)C)[C@H]2O)[C@](C)(O)C[C@@H](C)C(=O)[C@H](C)[C@@H](O)[C@]1(C)O [Erythromycin]
↑AUC of voriconazole (increase by effector drug) ([1]; ref Purkins et al. (2003d)): *↑1%
↑Cmax of voriconazole (increase by effector drug) ([1]; ref Purkins et al. (2003d)): *↑8%

Compound: COc1ccnc(C[S+]([O-])c2nc3ccc(OC(F)F)cc3[nH]2)c1OC (stereo not shown) [Pantoprazole]
↑AUC of voriconazole (increase by effector drug) [1, 13]: ↑ ^NR*
↑Cmax of voriconazole (increase by effector drug) [1, 13]: ↑ ^NR*

Compound: CC[C@H]1OC(=O)[C@H](C)[C@@H](O[C@H]2C[C@@](C)(OC)[C@@H](O)[C@H](C)O2)[C@H](C)[C@@H](O[C@@H]2O[C@H](C)C[C@H](N(C)C)[C@H]2O)[C@](C)(O)C[C@@H](C)CN(C)[C@H](C)[C@@H](O)[C@]1(C)O [Azithromycin]
↑AUC of voriconazole (increase by effector drug) ([1]; ref Purkins et al. (2003d)): *↑8%
↑Cmax of voriconazole (increase by effector drug) ([1]; ref Purkins et al. (2003d)): *↑18%

Compound: COc1ccc2nc([S@@+]([O-])Cc3ncc(C)c(OC)c3C)[nH]c2c1 [Esomeprazole]
↑AUC of voriconazole (increase by effector drug) [1, 14]: ↑ ^NR*
↑Cmax of voriconazole (increase by effector drug) [1, 14]: ↑ ^NR*

Compound: O=C(CCCN1CCC(O)(c2ccc(Cl)cc2)CC1)c1ccc(F)cc1 [Haloperidol]
↑AUC of voriconazole (increase by effector drug) [1, 15]: ↑ ^NR*
↑Cmax of voriconazole (increase by effector drug) [1, 15]: ↑ ^NR*

Compound: Cc1cc(C#N)cc(C)c1Oc1nc(Nc2ccc(C#N)cc2)nc(N)c1Br [Etravirine]
↑AUC of voriconazole (increase by effector drug) [1, 16]: *↑14%
↑Cmax of voriconazole (increase by effector drug) [1, 16]: *↑23%

Compound: CN/C(=N/CCSCc1nc[nH]c1C)NC#N [Cimetidine]
↑AUC of voriconazole (increase by effector drug) ([1]; ref Purkins et al. (2003b)): *↑22.5%
↑Cmax of voriconazole (increase by effector drug) ([1]; ref Purkins et al. (2003b)): *↑18.5%

Compound: COc1ccc2[nH]c([S+]([O-])Cc3ncc(C)c(OC)c3C)nc2c1 (stereo not shown) [Omeprazole]
↑AUC of voriconazole (increase by effector drug) ([1]; ref Wood et al. (2003)): *↑41%
↑Cmax of voriconazole (increase by effector drug) ([1]; ref Wood et al. (2003)): *↑15%

Source: paper PMC10288581 (Frontiers in Pharmacology, 2023)
